Experimental data as given in paper PMC7727669, “Platinum(II) Complexes with Bulky Disubstitute Triazolopyrimidines as Promising Materials for Anticancer Agents” (Materials, 2020).
Where two headings read alike, the source gives them in different places.

Experiments:
[1] = tested on: non-small cell lung carcinoma (A549); experiment: In vitro antiproliferative activity, SRB test, A549; format: cell-based, human; conditions: A549, 72 h incubation, average of three determinations
Experimental: (§1) The in vitro antiproliferative activity against three human tumor cell lines, namely, non-small cell lung carcinoma (A549) (ATCC, Rockville, MD, USA), […] human ductal breast epithelial tumor cells (T47D) (ATCC, Rockville, MD, USA) and colon cancer cells (LOVO) (ATCC, Rockville, MD, USA), and normal murine embryonic fibroblast cells (BALB/3T3) (ATCC, Rockville, MD, USA), was assessed.
(§2) Cells were plated in 96-well sterile plates (Sarstedt, Costar) at a density of 10^4 cells per well (in 100 μL of culture medium) and incubated for 24 h. The tested compound was added in final concentrations ranging from 0.1 to 100 μg mL^−1, and the incubation was continued for an additional 72 h. The results of in vitro cytotoxic activity are expressed as an IC50 (the dose of compound (in μM) that inhibits proliferation rate of tumor cells by 50%) value compared to the untreated control cells. IC50 values are expressed as the averages of three independently reproduced experiments. The details of this technique were described by Skehan. The tests of the antiproliferative activity in vitro against both cell lines were performed with the SRB (sulforhodamine B) test using an automated microplate reader (Synergy H4 photometer, BioTek Instruments Inc., Winooski, VT, USA). Moreover, in vitro toxicity against normal murine fibroblast Balb3T3 cells was assessed.

[2] = Partition coefficient (logP), shake-flask method; format: physicochemical; conditions: n-octanol / aqueous 0.9% NaCl, UV-Vis
Experimental: The lipophilicity (logP) of the platinum(II) compounds was determined using the shake–flask method. At first, aqueous (0.9% w/v) sodium chloride and organic (n–octanol) phases were saturated for 1 week. […] An equal volume of immiscible solvent was added, and the solutions were mixed mechanically in plastic tubes for 30 min. Samples were centrifuged (6000 rpm, 15 min). After separation, the phases were analyzed by UV–Vis spectroscopy to determine the amount of the compound in each phase. The absorption values before and after shaking were compared, and based on the Lambert–Beer law, the partition coefficient in both phases for each compound was calculated to determine the logP values. The procedures were repeated threefold.

[3] = tested on: colon cancer cells (LOVO); experiment: In vitro antiproliferative activity, SRB test, LoVo; format: cell-based, human; conditions: 72 h incubation, average of three determinations
Experimental: as §1, §2

[4] = tested on: cisplatin-resistant human ductal breast epithelial tumor cells (T47D); experiment: In vitro antiproliferative activity, SRB test, T47D; format: cell-based; conditions: 72 h incubation, average of three determinations
Experimental: as §1, §2

[5] = tested on: normal murine embryonic fibroblast cells (BALB/3T3); experiment: In vitro toxicity against normal fibroblasts, SRB test, BALB/3T3; format: cell-based; conditions: BALB/3T3 normal cells, 72 h incubation, average of three determinations
Experimental: as §2, with “The results of in vitro cytotoxic activity are expressed as an IC50 (the dose of compound (in μM) that inhibits proliferation rate of tumor cells by 50%) value compared to the untreated control cells.” left out

[6] = tested on: human ovarian carcinoma cell lines resistant to cisplatin (A2780R); set-up: method as in PMID 19783310; conditions: read-out: in vitro activity against A2780R; cited from earlier work
[7] = cited from earlier work

Compound | IC50 [1] | log P [2] | IC50 [3] | IC50 [4] | IC50 [5] | IC50 [6] | log P ([7]; literature data for platinum(II) drugs) | logP ([7]; symmetrical malonato complexes, previous work)
(Dimethylsulfoxide-κS)(7-isobutyl-5-methyl-1,2,4-triazolo[1,5-a]pyrimidine-κN(3))(malonato- κ^2O,O′)platinum(II) monoaqua hydrate [Complex 2] | 57.8 ± 13.5 µM | −0.65 | 38.4 ± 1.8 µM | 42.6 ± 19 µM | 46 ± 40.7 µM |  |  | 
(Dimethylsulfoxide-κS)(5,7-ditertbutyl-1,2,4-triazolo[1,5-a]pyrimidine-κN(3))(malonato-κ^2O,O′) platinum(II) [Complex 1] | 16.3 ± 9.9 µM | −1.58 | 27.9 ± 1 µM | 17.1 ± 10.5 µM | 30.2 ± 22.6 µM |  |  | 
(Dimethylsulfoxide-κS)(5,7-ditertbutyl-1,2,4-triazolo[1,5-a]pyrimidine-κN(3))(cyclobutane-1,1- dicarboxylato-κ^2O,O′))platinum(II) monoaqua hydrate [Complex 3] | 5 ± 0.9 µM | −1.69 | 20 ± 2.8 µM | 6.6 ± 4.8 µM | 10.2 ± 6.2 µM |  |  | 
N.N.[Cl][Pt][Cl] [cisplatin, reference compound] | 9 ± 1.1 µM |  | 0.84 ± 0.3 µM | 3.11 ± 1.2 µM | 3.2 ± 1.5 µM | 20.4 µM |  | 
N.N.O=C([O-])C1(C(=O)[O-])CCC1.[Pt+2] [carboplatin] |  |  |  |  |  |  | −2.30 | 
CC(C)(C)c1cc(C(C)(C)C)n2ncnc2n1.CC(C)(C)c1cc(C(C)(C)C)n2ncnc2n1.O=C([O-])CC(=O)[O-].[Pt+2] [[Pt(mal)(dbtp)2]] |  |  |  |  |  |  |  | 2.07
(Dimethylsulfoxide-κS)(7-isobutyl-5-methyl-1,2,4-triazolo[1,5-a]pyrimidine-κN(3))(cyclo- butane-1,1-dicarboxylato-κ^2O,O′))platinum(II) monoaqua hydrate [Complex 4] | 57.3 ± 11.3 µM | −1.23 | 41.2 ± 1.6 µM | 21.9 ± 17.2 µM | 73.4 ± 29.7 µM |  |  | 
